Reference: patent US20130245355A1, “3-HETARYL-SUBSTITUTED PYRROLO[2,3 B]PYRIDINE DERIVATIVES AS PDK1 INHIBITORS” (MERCK PATENT GMBH, priority 2010, published 2013)

What was measured:
[1] = molecular target: T1, PDK1 (Homo sapiens, UniProt O15530); assay: Test for the inhibition of PDK1 (flashplate, 33P-ATP); details: His6-PDK1 (1-50) 3.4 nM, 4 μM ATP, 30° C., 60 min; read-out: IC50 [PDK1] biochemical
T1 construct: His6 (N)
T1 sequence (O15530 51-556 limits assumed): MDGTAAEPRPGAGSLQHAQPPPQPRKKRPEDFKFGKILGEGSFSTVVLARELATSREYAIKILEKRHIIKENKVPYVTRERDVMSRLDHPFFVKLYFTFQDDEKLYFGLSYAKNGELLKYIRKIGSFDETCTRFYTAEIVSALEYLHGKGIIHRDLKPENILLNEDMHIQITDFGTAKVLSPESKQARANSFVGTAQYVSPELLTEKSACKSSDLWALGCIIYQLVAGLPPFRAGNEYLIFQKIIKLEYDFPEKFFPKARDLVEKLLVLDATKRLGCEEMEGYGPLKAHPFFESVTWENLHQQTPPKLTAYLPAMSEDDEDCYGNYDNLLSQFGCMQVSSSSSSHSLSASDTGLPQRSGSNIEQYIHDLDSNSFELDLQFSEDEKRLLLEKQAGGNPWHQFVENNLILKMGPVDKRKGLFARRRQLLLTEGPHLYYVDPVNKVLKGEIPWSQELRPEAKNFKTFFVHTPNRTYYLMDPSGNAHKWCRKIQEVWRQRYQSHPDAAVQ
Protocol: The experimental batches are carried out in a flashplate system with 384 wells/microtitration plate.
In each case, the PDK1 sample His6-PDK1 (1-50) (3.4 nM), the PDK1 substrate biotin-bA-bA-[…] (400 nM), 4 μM ATP (with 0.2μ Ci of ^33P-ATP/well) and the test substance in 50 μl of conventional experimental solution per well are incubated at 30° C. for 60 min. The test substances are employed in corresponding concentrations (if desired in a dilution series). The control is carried out without test substance. The reaction is stopped using standard methods and washed. The activity of the kinase is measured via the incorporated radioactivity in top count. In order to determine the non-specific kinase reaction (blank value), the experimental batches are carried out in the presence of 100 nM staurosporin.
The radioactivity (decompositions per minute) of the blank value (no use of test substance in the presence of staurosporin) is subtracted from all other radioactivity values. The controls (kinase activity without test substance) are set equal to 100 percent and all other radioactivity values (after subtracting the blank value) are expressed set in relation thereto (for example in % of the control).
IC50 values (50% inhibition) are determined with the aid of statistics programmes, such as, for example, RS1.

[2] = molecular target: T2, PDK1 (Homo sapiens, UniProt O15530); assay: Cellular testing of PDK1 kinase inhibitors in PC3 cells (Luminex, phospho-T308-PKB); format: cell-based; details: 30 min, serum-free
T2 construct: endogenous in cells; host or cells: PC3 cells
T2 sequence (O15530 1-556): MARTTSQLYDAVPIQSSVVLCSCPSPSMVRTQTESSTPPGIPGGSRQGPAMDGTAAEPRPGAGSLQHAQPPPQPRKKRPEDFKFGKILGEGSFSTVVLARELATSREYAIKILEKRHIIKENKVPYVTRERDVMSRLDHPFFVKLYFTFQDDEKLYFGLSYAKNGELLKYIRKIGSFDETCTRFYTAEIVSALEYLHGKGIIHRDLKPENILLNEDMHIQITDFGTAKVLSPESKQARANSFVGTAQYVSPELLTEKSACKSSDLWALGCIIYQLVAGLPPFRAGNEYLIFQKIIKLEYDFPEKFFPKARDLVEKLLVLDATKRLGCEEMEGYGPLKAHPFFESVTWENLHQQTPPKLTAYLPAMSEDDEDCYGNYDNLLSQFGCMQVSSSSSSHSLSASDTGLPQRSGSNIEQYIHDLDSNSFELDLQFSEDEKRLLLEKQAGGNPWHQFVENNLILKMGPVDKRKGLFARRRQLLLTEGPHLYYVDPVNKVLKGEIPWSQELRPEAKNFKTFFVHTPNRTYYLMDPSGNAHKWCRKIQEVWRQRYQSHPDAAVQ
Protocol: Method for the Cellular Testing of PDK1 Kinase Inhibitors in PC3 Cells.
The cellular assay for the determination of the PDK1 kinase activity is carried out as a Luminex assay in the 96-well format. PC3 cells are sown at 20,000 cells per well in 100 μl of medium (45% of […]/45% of Ham's F12/10% of FCS) and incubated on the following day for 30 min with a serial dilution of the test substance (7 concentrations) under serum-free conditions. The cells are subsequently lysed using 90 μl of lysis buffer (20 mM tris/HCl pH 8.0, 150 mM NaCl, 1% of NP40, 10% of glycerol, 1% of phosphatase inhibitor I, 1% of phosphatase inhibitor II, 0.1% of protease inhibitor cocktail III, 0.01% of benzonase) per well, and the lysates are separated off from insoluble cell constituents by means of centrifugation through a 96-well filter plate (0.65 μm). The lysates are incubated overnight at 4° C. with shaking with Luminex beads to which an anti-total PKB antibody is coupled. The detection is carried out on the following day by addition of a phospho-T308-PKB antibody and a species-specific […] secondary antibody. The detection of phospho T308-PKB is carried out by measurement in a Luminex100 instrument by determination of 100 events per cavity in a measurement time of 60 sec. As pharmacological blank, the signals obtained from cells which have been treated with 10 μM staurosporin are subtracted from all other batches. The control value used for maximum phosphorylation of PKB on T308 are the signals from cells which have only been treated with the solvent (0.3% of DMSO). The values of the batches treated with test substance are calculated therefrom as percentage of control, and IC50 values are determined by means of RS 1.

IC50 [1] [µM]	IC50 [2] [µM]	Compound
0.0005 to 1	0.0005 to 1	Cn1cc(-c2cnc3[nH]cc(-c4nnc(C(O)c5cccc(F)c5)o4)c3c2)cn1 (stereo not drawn) [A47]
0.0005 to 1	0.0005 to 1	CC(O)(c1cc(-c2c[nH]c3ncc(-c4cnn(CC(=O)N5CCCCC5)c4)cc23)no1)c1ccccc1F (stereo not drawn) [A12]
0.0005 to 1	1 to 10	Cn1cc(-c2cnc3[nH]cc(-c4cc([C@](C)(O)c5cccc(F)c5)on4)c3c2)cn1 (single isomer, unassigned) [A63]
1 to 10	0.0005 to 1	Cn1cc(-c2cnc3[nH]cc(-c4nc(C(C)(O)c5ccccc5Cl)no4)c3c2)cn1 (stereo not drawn) [A79]
0.0005 to 1	1 to 10	Cn1cc(-c2cnc3[nH]cc(-c4n[nH]c(C(O)c5ccccc5Cl)n4)c3c2)cn1 (stereo not drawn) [A87, (2-chlorophenyl)-{5-[5-(1-methyl-1H-pyrazol-4-yl)-1H-pyrrolo[2,3-b]pyridin-3-yl]-2H-1,2,4-triazol-3-yl}-methanol]
0.0005 to 1	1 to 10	Cn1cc(-c2cnc3[nH]cc(-c4cc(C(C)(O)c5ccccc5)n(CCO)n4)c3c2)cn1 (stereo not drawn) [A68]
1 to 10	1 to 10	Cn1cc(-c2cnc3[nH]cc(-c4n[nH]c(C(=O)c5ccccc5)n4)c3c2)cn1 [A39]
0.0005 to 1	0.0005 to 1	Cn1cc(-c2cnc3[nH]cc(-c4n[nH]c(Cc5cccc(F)c5F)n4)c3c2)cn1 [A16]
0.0005 to 1	1 to 10	C=C(c1cc(-c2c[nH]c3ncc(-c4cnn(C)c4)cc23)n[nH]1)c1ccccc1F [A28]
0.0005 to 1	1 to 10	CN[C@@H](c1ccccc1)c1nnc(-c2c[nH]c3ncc(-c4cnn(C)c4)cc23)o1 [A116]
0.0005 to 1	1 to 10	Cn1cc(-c2cnc3[nH]cc(-c4cc(C(C)(O)c5ccccc5Cl)[nH]n4)c3c2)cn1 (stereo not drawn) [A88]
0.0005 to 1	0.0005 to 1	CC(O)(c1cc(-c2c[nH]c3ncc(-c4cnn(CCO)c4)cc23)no1)c1ccccc1F (stereo not drawn) [A24]
0.0005 to 1	0.0005 to 1	Cn1cc(-c2cnc3[nH]cc(-c4nnc(C(O)c5ccccc5Cl)o4)c3c2)cn1 (racemic) [A58]
0.0005 to 1	1 to 10	Cn1cc(-c2cnc3[nH]cc(-c4n[nH]c(Cc5ccccc5)n4)c3c2)cn1 [A17]
0.0005 to 1	0.0005 to 1	Cn1cc(-c2cnc3[nH]cc(-c4cc(C(C)(O)c5ccccc5Cl)on4)c3c2)cn1 (stereo not drawn) [A89]
0.0005 to 1	1 to 10	Cn1cc(-c2cnc3[nH]cc(-c4n[nH]c(C(C)(O)c5ccccc5)n4)c3c2)cn1 (stereo not drawn) [A42, 1-{5-[5-(1-methyl-1H-pyrazol-4-yl)-1H-pyrrolo[2,3-b]pyridin-3-yl]-2H-1,2,4-triazol-3-yl}-1-phenylethanol]
0.0005 to 1	1 to 10	Cn1cc(-c2cnc3[nH]cc(-c4n[nH]c(C5(c6cccnc6)CC5)n4)c3c2)cn1 [A125, 5-(1-methyl-1H-pyrazol-4-yl)-3-[5-(1-pyridin-3-ylcyclopropyl)-1H-1,2,4-triazol-3-yl]-1H-pyrrolo[2,3-b]pyridine]
0.0005 to 1	0.0005 to 1	Cn1cc(-c2cnc3[nH]cc(-c4nnc([C@@H](O)c5ccccc5Cl)o4)c3c2)cn1 (single isomer, unassigned) [A130]

IC50 [1] [µM]	IC50 [2] [µM]	Compound
0.0005 to 1	0.0005 to 1	Cn1cc(-c2cnc3[nH]cc(-c4nnc([C@H](N)c5ccccc5Cl)o4)c3c2)cn1 [A112]
0.0005 to 1	1 to 10	Cn1cc(-c2cnc3[nH]cc(-c4n[nH]c(C5(c6ccc(=O)[nH]c6)CC5)n4)c3c2)cn1 [A126, 5-(1-{5-[5-(1-methyl-1H-pyrazol-4-yl)-1H-pyrrolo[2,3-b]pyridin-3-yl]-2H-1,2,4-triazol-3-yl}cyclopropyl)-1H-pyridin-2-one]
1 to 10	1 to 10	Cn1cc(-c2cnc3[nH]cc(-c4csc(Cc5cccc(F)c5F)n4)c3c2)cn1 [A9]
0.0005 to 1	1 to 10	Cn1cc(-c2cnc3[nH]cc(-c4nnc(Cc5ccccc5)o4)c3c2)cn1 [A21]
0.0005 to 1	1 to 10	Cn1cc(-c2cnc3[nH]cc(-c4cc(C(O)(c5ccnnc5)C(C)(C)C)on4)c3c2)cn1 (stereo not drawn) [A100, 2,2-dimethyl-1-{3-[5-(1-methyl-1H-pyrazol-4-yl)-1H-pyrrolo-[2,3-b]pyridin-3-yl]isoxazol-5-yl}-1-pyridazin-4-ylpropan-1-ol]
0.0005 to 1	1 to 10	Cn1cc(-c2cnc3[nH]cc(-c4noc(C(C)(O)c5cccc(F)c5)n4)c3c2)cn1 (stereo not drawn) [A51]
0.0005 to 1	1 to 10	Cn1cc(-c2cnc3[nH]cc(-c4nnc(C(O)c5ccccc5F)o4)c3c2)cn1 (stereo not drawn) [A43]
1 to 10	1 to 10	COC(=O)c1ccc(C(O)c2nnc(-c3c[nH]c4ncc(-c5cnn(C)c5)cc34)o2)c(Cl)c1 (stereo not drawn) [A128, methyl 3-chloro-4-(hydroxy-{5-[5-(1-methyl-1H-pyrazol-4-yl)-1H-pyrrolo[2,3-b]-pyridin-3-yl]-1,3,4-oxadiazol-2-yl}methyl)benzoate]
0.0005 to 1	0.0005 to 1	Cn1cc(-c2cnc3[nH]cc(-c4nnc(C(N)c5ccccc5Cl)o4)c3c2)cn1 (stereo not drawn) [A118]
0.0005 to 1	0.0005 to 1	Cn1cc(-c2cnc3[nH]cc(-c4nnc(Cc5ccccc5F)o4)c3c2)cn1 [A22]
0.0005 to 1	0.0005 to 1	Cn1cc(-c2cnc3[nH]cc(-c4nc(C(C)(O)c5cccc(Cl)c5)no4)c3c2)cn1 (stereo not drawn) [A80]
0.0005 to 1	1 to 10	COC(c1ccccc1)c1nnc(-c2c[nH]c3ncc(-c4cnn(C)c4)cc23)o1 (stereo not drawn) [A81]
1 to 10	1 to 10	Cn1cc(-c2cnc3[nH]cc(-c4nnc(C(O)c5ccc(Cl)cc5)o4)c3c2)cn1 (stereo not drawn) [A60]
0.0005 to 1	1 to 10	Cn1cc(-c2cnc3[nH]cc(-c4noc(C(C)(O)c5cccc(F)c5F)n4)c3c2)cn1 (stereo not drawn) [A52]
0.0005 to 1	1 to 10	Cn1cc(-c2cnc3[nH]cc(-c4n[nH]c(C(C)(O)c5cccc(F)c5F)n4)c3c2)cn1 (stereo not drawn) [A54]
0.0005 to 1	1 to 10	Cn1cc(-c2cnc3[nH]cc(-c4n[nH]c(C(C)(O)c5ccccc5F)n4)c3c2)cn1 (stereo not drawn) [A49]
0.0005 to 1	0.0005 to 1	CCC(O)(c1cc(-c2c[nH]c3ncc(-c4cnn(C)c4)cc23)no1)c1ccccc1F (stereo not drawn) [A25]
0.0005 to 1	1 to 10	Cn1cc(-c2cnc3[nH]cc(-c4cc(CO)on4)c3c2)cn1 [A105]
